Reference: patent US9387213B2, “Small molecules inhibiting oncoprotein Myc” (Health Research, Inc., priority 2012, dated 2016)

Assays:
[1] = tested on: HO15.19 cells reconstituted with exogenous C-MYC; test: Inhibition of C-MYC-dependent proliferation, cell cycle distribution by FACS; assay type: cell-based, rat; conditions: 3 μM
Method: In parallel, […] was evaluated for the ability to inhibit C-MYC-dependent proliferation in HO15.19 cells reconstituted with exogenous C-MYC. HO15.19 cells are the only cell line that is capable of continuous proliferation in the absence of any MYC protein expression, a feature that makes this line a reference in the field.

SK-Mel-19 = test: Suppression of proliferation / senescence induction in melanoma line; assay type: cell-based; conditions: Homo sapiens, SK-MEL19
Text: (§1) 260 analogs of N77A7 were selected from several commercially available libraries of small molecules based on the structural similarities with N77A7. The compounds were screened for the ability to permanently suppress proliferation and induce senescence in cells from melanoma lines SK-Mel-19 and SK-Mel-103. Based on the above-described screening procedure, seven small molecules were identified as having IC50 values lower than that of N77A7.

SK-Mel-103 = test: as above; assay type: cell-based; conditions: Homo sapiens
Text: as §1

[2] = tested on: Myc+ fibroblasts (HO15.19 Myc-null cells with C-MYC re-expression); test: Stable-isotope tracing, 13C labeling and uptake/secretion of metabolites; assay type: cell-based, rat; conditions: 13C-glucose, 24 hrs, Myc+ cells treated
Method: Experiments were perform and data were analyzed as described in FIG. 14. Cellular measurements are mean±SD of 3 samples.

HO-N-myc cells = test: Secondary filter for Myc specificity: cell growth inhibition, methylene blue staining; assay type: cell-based, rat
Method: (§2) FIG. 4 illustrates the myc specificity of tested compounds. Rat1a cells expressing c-myc, L-myc or N-myc or lacking any Myc (null) were treated for 72 h with a range of hit compound concentrations. The cells were then fixed and stained with methylene blue and the percentage of cells in the presence of compound compared to DMSO only control was calculated.
(§3) Validated hits were divided into classes when two or more compounds shared significant structural similarity. The ID50 for N-myc transactivation (the inhibitory dose resulting in 50% decrease in luciferase activity) for each hit was calculated from the dose-response N-myc responsive reporter assay. Compounds within each class were ranked by their ID50 for N-myc transactivation and the best compounds within each class were chosen for further studies. In addition, the best of the structurally unique compounds were also analyzed. A total of 46 hits were passed through a secondary filter designed to determine the specificity of the hits for Myc proteins. For this filter, we used a panel of cell lines derived from Rat1a cells (kindly provided by Michael Cole, Dartmouth University): HO-null-c-Myc deficient cells due to homologous recombination that express neither N-myc nor L-myc HO-c-Myc, HO-L-myc and HO-N-myc derived by retroviral transduction of the corresponding Myc genes into HO-null cells. Since each cell line expresses only a single Myc or no Myc family members, we could identify compounds that act through Myc family members as well as which Myc family members. […] The 18 Myc-specific compounds identified during the screening and filtering process are presented in Table 1 and represent distinct classes of molecules, including pyrazoles (e.g., N147A7, N47E10, N147G5), tetrazoles (e.g., N77A7) and 3-bromophenol (e.g., N4G6).

HO-c-Myc cells = test: as above; assay type: cell-based, rat
Method: as §2, §3

CCN(CC)c1ccc(/C=N/NC(=O)Cn2nnc(-c3ccccc3)n2)c(O)c1 [Compound N77A7]
HO15.19-C-MYC G2 ([1]; percent of cells in G2 phase): 15.39% | HO15.19-C-MYC S ([1]; percent of cells in S phase): 34.88% | IC50 (SK-Mel-19): 3000 nM | IC50 (SK-Mel-103): 3000 nM | metabolic phenotype [2]: metabolic phenotype similar to Myc-null cells | Myc Index N (HO-N-myc cells; ID50 in HO-null cells divided by ID50 in HO—N-myc cells): 4.5 | IC50 (HO-N-myc cells; Rattus norvegicus, cell growth inhibition, 72 h, methylene blue, read-out: ID50 HO—N-myc): 770 nM | Myc Index C (HO-c-Myc cells; ID50 in HO-null cells divided by ID50 in HO-c-myc cells): 0.8 | IC50 (HO-c-Myc cells; Rattus norvegicus, cell growth inhibition, 72 h, methylene blue, read-out: ID50 HO-c-myc): 4700 nM
